Laboratory results reported in patent US10709702B2, “Treatment of skin disorders by topical administration of VEGF inhibitors” (AMD THERAPEUTICS LLC, priority 2015, dated 2020).

Assay: Skin absorption after topical application to a hand, disappearance of red color
Type: in vivo, human

Time until absorbed in skin tissue (red color disappeared): 1 to 2 h
Compound: CO[C@H]1/C=C/O[C@@]2(C)Oc3c(C)c(O)c4c(O)c(c(/C=N/N5CCN(C)CC5)c(O)c4c3C2=O)NC(=O)/C(C)=C\C=C\[C@H](C)[C@H](O)[C@@H](C)[C@@H](O)[C@@H](C)[C@H](OC(C)=O)[C@@H]1C [rifampicin]
